Laboratory results as given in patent US20220104493A1, “HERBICIDAL COMPOUNDS” (SYNGENTA CROP PROTECTION AG, priority 2019, published 2022).
Counter-ions that a name gives are not always drawn. Like-named read-outs stand apart in the source and are kept apart here.

How the values were obtained:
Experiment in all cases: Post-emergence efficacy, Method A
Format in all cases: in vivo
Lolium perenne (LOLPE) = settings: read-out: Control of weed species after post-emergence application, LOLPE
Eleusine indica (ELEIN) = settings: read-out: Control of weed species after post-emergence application, ELEIN
[1] = system: Digitaria sanguinalis (DIGSA); settings: read-out: Control of weed species after post-emergence application, DIGSA
[2] = system: Ipomoea hederacea (IPOHE); settings: read-out: Control of weed species after post-emergence application, IPOHE
[3] = system: Euphorbia heterophylla (EPHHL); settings: read-out: Control of weed species after post-emergence application, EPHHL
[4] = system: Echinochloa crus-galli (ECHCG); settings: read-out: Control of weed species after post-emergence application, ECHCG
[5] = system: Chenopodium album (CHEAL); settings: read-out: Control of weed species after post-emergence application, CHEAL
[6] = system: Amaranthus palmeri (AMAPA); settings: read-out: Control of weed species after post-emergence application, AMAPA
Setaria faberi (SETFA) = settings: read-out: Control of weed species after post-emergence application, SETFA
[7] = 500 g/Ha, 100=total damage to plant, 0=no damage, evaluated after 7 and 14 days
[8] = 125 g/Ha, 100=total damage to plant, 0=no damage, evaluated after 7 and 14 days

Structure (SMILES)	pest or weed control at 500 g/ha (Lolium perenne (LOLPE); [7]) [%]	pest or weed control at 500 g/ha (Eleusine indica (ELEIN); [7]) [%]	pest or weed control at 500 g/ha [1, 7] [%]	pest or weed control at 500 g/ha [2, 7] [%]	pest or weed control at 500 g/ha [3, 7] [%]	pest or weed control at 500 g/ha [4, 7] [%]	pest or weed control at 500 g/ha [5, 7] [%]	pest or weed control at 500 g/ha [6, 7] [%]	pest or weed control at 500 g/ha (Setaria faberi (SETFA); [7]) [%]	further results
O=S(=O)([O-])CCC[n+]1ccc(-c2nnco2)cc1 [Compound A17]	0	10	40	20	50	30	70	70	40	–
O=S(=O)([O-])CCC[n+]1ccc(-c2cnon2)cc1 [Compound A18]	10	30	30	20	50	50	50	100	40	–
O=S(=O)([O-])CC[n+]1ccc(-c2cnns2)cc1 [Compound A19]	30	30	30	50	50	40	50	100	40	–
O=C(O)C[n+]1ccc(-c2nccs2)cc1 [Compound A24]	0	0	10	20	40	0	40	0	0	–
O=C(O)CC[n+]1ccc(-c2nccs2)cc1 [Compound A25]	0	10	10	10	0	0	10	0	0	–
Cn1nnnc1-c1cc[n+](CCS(=O)(=O)[O-])cc1 [Compound A26]	10	10	20	10	20	10	10	0	10	–
Cn1nnc(-c2cc[n+](CCS(=O)(=O)[O-])cc2)n1 [Compound A27]	0	0	0	10	20	0	10	10	0	–
Cn1nnnc1-c1cc[n+](CC(=O)O)cc1 [Compound A33]	0	20	20	0	40	0	40	90	0	–
Cn1nnc(-c2cc[n+](CC(=O)O)cc2)n1 [Compound A34]	0	0	0	0	0	0	0	70	0	–
Cc1nnc(-c2cc[n+](CCCS(=O)(=O)[O-])cc2)o1 [Compound A36]	0	10	30	30	60	10	60	70	10	–
O=S(=O)([O-])CC[n+]1ccc(-c2nc(C(F)(F)F)co2)cc1 [Compound A46]	0	0	0	0	0	0	0	30	0	–
CCOP(C)(=O)C[n+]1ccc(-c2ncns2)cc1 (stereo not drawn) [Compound A47, 5-[1-[[ethoxy(methyl)phosphoryl]methyl]pyridin-1-ium-4-yl]-1,2,4-thiadiazole trifluoromethanesulfonate]	–	–	–	–	–	–	–	–	–	pest or weed control at 500 g/ha (Lolium perenne (LOLPE)): 0%; pest or weed control at 500 g/ha (Eleusine indica (ELEIN)): 10%; pest or weed control at 500 g/ha [1]: 10%; pest or weed control at 500 g/ha [2]: 10%; pest or weed control at 500 g/ha [3]: 10%; pest or weed control at 500 g/ha [4]: 10%; pest or weed control at 500 g/ha [5]: 60%; pest or weed control at 500 g/ha [6]: 60%; pest or weed control at 500 g/ha (Setaria faberi (SETFA)): 10%
O=C(O)CC[n+]1ccc(-c2nc(C(F)(F)F)ns2)cc1 [Compound A48, 3-[4-[3-(trifluoromethyl)-1,2,4-thiadiazol-5-yl]pyridin-1-ium-1-yl]propanoic acid acetate]	–	–	–	–	–	–	–	–	–	pest or weed control at 125 g/ha (Lolium perenne (LOLPE); [8]): 10%; pest or weed control at 125 g/ha (Eleusine indica (ELEIN); [8]): 0%; pest or weed control at 125 g/ha [1, 8]: 0%; pest or weed control at 125 g/ha [2, 8]: 0%; pest or weed control at 125 g/ha [3, 8]: 30%; pest or weed control at 125 g/ha [4, 8]: 0%; pest or weed control at 125 g/ha [5, 8]: 10%; pest or weed control at 125 g/ha [6, 8]: 90%; pest or weed control at 125 g/ha (Setaria faberi (SETFA); [8]): 20%
O=C(O)C[n+]1ccc(-c2csnn2)cc1 [Compound A53]	0	0	0	20	20	10	10	10	10	–
Cn1nnnc1-c1cc[n+](CS(=O)(=O)[O-])cc1 [Compound A57]	0	20	30	0	20	60	80	100	0	–
O=S(=O)([O-])OCC[n+]1ccc(-c2nnco2)cc1 [Compound A64]	10	20	30	20	30	50	30	50	20	–
O=S(=O)([O-])OCC[n+]1ccc(-c2csnn2)cc1 [Compound A65, 2-[4-(thiadiazol-4-yl)pyridin-1-ium-1-yl]ethyl sulfate]	10	20	30	20	20	20	20	30	10	–
